# From patent US20070149570A1, “Piperidine derivative and use thereof” (priority 2005, published 2007)
# Where a name gives a salt, the structure may show the parent alone. Read-outs that look alike come from different tables or passages of the source.
# Tests used:
# substance P receptors = molecular target: T1, substance P receptors (Homo sapiens, UniProt P25103); assay: Radioligand receptor binding inhibitory activity using receptor from human lymphoblast cells (IM-9), 125I-BHSP; details: radioligand 125I-BHSP, 25° C., 30 minutes
# T1 construct: The receptor was prepared from human lymphoblast cells (IM-9); endogenous in cells; host or cells: IM-9 human lymphoblast cells (membrane preparation)
# T1 sequence (P25103 whole entry): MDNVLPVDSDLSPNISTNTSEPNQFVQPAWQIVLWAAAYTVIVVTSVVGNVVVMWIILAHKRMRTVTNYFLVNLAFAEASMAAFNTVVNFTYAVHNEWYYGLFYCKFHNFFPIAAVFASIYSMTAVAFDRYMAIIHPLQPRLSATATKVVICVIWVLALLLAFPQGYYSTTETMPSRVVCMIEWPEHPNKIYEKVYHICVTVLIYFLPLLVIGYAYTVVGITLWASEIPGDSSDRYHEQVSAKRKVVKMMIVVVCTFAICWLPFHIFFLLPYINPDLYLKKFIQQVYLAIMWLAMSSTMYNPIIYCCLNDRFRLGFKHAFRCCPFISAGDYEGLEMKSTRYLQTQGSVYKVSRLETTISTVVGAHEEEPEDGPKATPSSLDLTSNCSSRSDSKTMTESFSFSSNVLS
# Method: Radioligand receptor binding inhibitory activity (Binding inhibitory activity using receptor from human lymphoblast cells (IM-9))
# The method of M. A. Cascieri et al., [Molecular Pharmacology, vol. 42, p. […] The receptor was prepared from human lymphoblast cells (IM-9). IM-9 cells (2×10^5 cells/mL) were incubated for 3 days (one liter), which was then subjected to centrifugation for 5 minutes at 500×G to obtain cell pellets. […] The residue was washed twice with 30 mL of the above-mentioned buffer, which was then preserved frozen (−80° C.) as a specimen of the receptor.
# The specimen was suspended in a reaction buffer (50 mM Tri-HCl buffer (pH 7.4), 0.02% bovine serum albumin, 1 mM phenylmethylsulfonyl fluoride, 2 μg/mL chymostatin, 40 μg/mL bacitracin and 3 mM manganese chloride) to have protein in the concentration of 0.5 mg/mL of protein and 100 μL portion of the suspension was used in the reaction. […] The amount of nonspecific binding was determined by adding substance P at a final concentration of 2×10^−6 M.
# After the reaction, using a cell harvester (290 PHD, Cambridge Technology, Inc., U.S.A.), filtration was carried out through a glass filter (GF/B, Whatman, U.S.A.), which was immersed in 0.1% polyethyleneimine for 24 hours and dried. After washing three times with 250 μL of 50 mM Tris-HCl buffer (pH 7.4) containing 0.02% bovine serum albumin, the radioactivity remaining on the filter was determined with a gamma counter.
# [1] = read-out: IC50 (concentration necessary to cause 50% inhibition)
melting point [°C],IC50 (substance P receptors; [1]) [nM],SMILES,IC50 (substance P receptors; IC50 (concentration necessary to cause 50% inhibition)) [nM]
153,–,Cl.O=C1CC(C(=O)N2CC[C@H](NCc3cc(-c4ccc(Cl)cc4)ccc3OC(F)(F)F)[C@H](c3ccccc3)C2)CC(=O)N1,–
198 to 200,–,"CC1(C)OC(=O)N(CC(=O)N2CC[C@H](NCc3cc(-c4ccc(C#N)cc4F)ccc3OC(F)(F)F)[C@H](c3ccccc3)C2)C1=O (as salt: hydrochloride) (hydrate or solvate) [Example 97, 3′-[({(3R,4S)-1-[(5,5-dimethyl-2,4-dioxo-1,3-oxazolidin-3-yl)acetyl]-3-phenylpiperidin-4-yl}amino)methyl]-2-fluoro-4′-(trifluoromethoxy)biphenyl-4-carbonitrile]",–
197 to 199,–,"CC1(C)OC(=O)N(CC(=O)N2CC[C@H](NCc3cc(-c4ccc(C#N)cc4)ccc3OC(F)(F)F)[C@H](c3ccccc3)C2)C1=O (as salt: hydrochloride) (hydrate or solvate) [Example 137, 3′-[({(3R,4S)-1-[(5,5-dimethyl-2,4-dioxo-1,3-oxazolidin-3-yl)acetyl]-3-phenylpiperidin-4-yl}amino)methyl]-4′-(trifluoromethoxy)biphenyl-4-carbonitrile]",–
162 to 164,–,"O=C1CC(C(=O)N2CC[C@H](NCc3cc(-c4ccc(Cl)cc4F)ccc3OC(F)(F)F)[C@H](c3ccccc3)C2)CC(=O)N1 (as salt: hydrochloride) [Example 132, 4-{[(3R,4S)-4-({[4′-chloro-2′-fluoro-4-(trifluoromethoxy)biphenyl-3-yl]methyl}amino)-3-phenylpiperidin-1-yl]carbonyl}piperidine-2,6-dione]",–
–,–,"COc1ccc(-c2ccc(C#N)cc2)cc1CN[C@H]1CCN(C(=O)C2CCN(C(C)=O)CC2)C[C@H]1c1ccccc1 [Example 35, 3′-[({(3R,4S)-1-[(1-acetylpiperidin-4-yl)carbonyl]-3-phenylpiperidin-4-yl}amino)methyl]-4′-methoxybiphenyl-4-carbonitrile]",0.017
–,0.017,"COc1ccc(-c2ccc(C#N)cc2F)cc1CN[C@H]1CCN(C(=O)C2CCN(C(C)=O)CC2)C[C@H]1c1ccccc1 [Example 36, 3′-[({(3R,4S)-1-[(1-acetylpiperidin-4-yl)carbonyl]-3-phenylpiperidin-4-yl}amino)methyl]-2-fluoro-4′-methoxybiphenyl-4-carbonitrile]",–
–,0.019,"COc1ccc(-c2ccc(C#N)cc2)cc1CN[C@H]1CCN(C(=O)[C@@H](CC(N)=O)NC(C)=O)C[C@H]1c1ccccc1 [Example 41, (3R)-3-(acetylamino)-4-((3R,4S)-4-{[(4′-cyano-4-methoxybiphenyl-3-yl)methyl]amino}-3-phenylpiperidin-1-yl)-4-oxobutanamide]",–
–,0.014,"COc1ccc(-c2ccc(C#N)cc2)cc1CN[C@H]1CCN(C(=O)C2CC(=O)NC(=O)C2)C[C@H]1c1ccccc1 [Example 42, 3′-[({(3R,4S)-1-[(2,6-dioxopiperidin-4-yl)carbonyl]-3-phenylpiperidin-4-yl}amino)methyl]-4′-methoxybiphenyl-4-carbonitrile]",–
–,0.015,"COc1ccc(-c2ccc(C#N)cc2)cc1CN[C@H]1CCN(C(=O)Cn2cnnn2)C[C@H]1c1ccccc1 [Example 43, 4′-methoxy-3′-({[(3R,4S)-3-phenyl-1-(1H-tetrazol-1-ylacetyl)piperidin-4-yl]amino}methyl)biphenyl-4-carbonitrile]",–
–,0.015,"COc1ccc(-c2ccc(C#N)cc2)cc1CN[C@H]1CCN(C(=O)Cc2n[nH]c(=O)[nH]2)C[C@H]1c1ccccc1 [Example 44, 4′-methoxy-3′-[({(3R,4S)-1-[(5-oxo-4,5-dihydro-1H-1,2,4-triazol-3-yl)acetyl]-3-phenylpiperidin-4-yl}amino)methyl]biphenyl-4-carbonitrile]",–
–,0.023,"CC(=O)NCC(=O)N1CC[C@H](NCc2cc(-c3ccc(Cl)cc3)ccc2OC(F)(F)F)[C@H](c2ccccc2)C1 [Example 72, N-{2-[(3R,4S)-4-({[4′-chloro-4-(trifluoromethoxy)biphenyl-3-yl]methyl}amino)-3-phenylpiperidin-1-yl]-2-oxoethyl}acetamide]",–
–,0.021,"CC1(C)OC(=O)N(CC(=O)N2CC[C@H](NCc3cc(-c4ccc(C#N)cc4F)ccc3OC(F)(F)F)[C@H](c3ccccc3)C2)C1=O [Example 96, 3′-[({(3R,4S)-1-[(5,5-dimethyl-2,4-dioxo-1,3-oxazolidin-3-yl)acetyl]-3-phenylpiperidin-4-yl}amino)methyl]-2-fluoro-4′-(trifluoromethoxy)biphenyl-4-carbonitrile]",–
–,0.023,"CC1(C)OC(=O)N(CC(=O)N2CC[C@H](NCc3cc(-c4ccc(C#N)cc4F)ccc3OC(F)(F)F)[C@H](c3ccccc3)C2)C1=O [Example 97, 3′-[({(3R,4S)-1-[(5,5-dimethyl-2,4-dioxo-1,3-oxazolidin-3-yl)acetyl]-3-phenylpiperidin-4-yl}amino)methyl]-2-fluoro-4′-(trifluoromethoxy)biphenyl-4-carbonitrile]",–
132 to 134,0.015,"N#Cc1ccc(-c2ccc(OC(F)(F)F)c(CN[C@H]3CCN(C(=O)CO)C[C@H]3c3ccccc3)c2)c(F)c1 [Example 100, 2-fluoro-3′-({[(3R,4S)-1-glycoloyl-3-phenylpiperidin-4-yl]amino}methyl)-4′-(trifluoromethoxy)biphenyl-4-carbonitrile]",–
–,0.024,"CC(=O)N1CCC(C(=O)N2CC[C@H](NCc3cc(-c4ccc(C#N)cc4F)ccc3OC(F)(F)F)[C@H](c3ccccc3)C2)CC1 [Example 101, 3′-[({(3R,4S)-1-[(1-acetylpiperidin-4-yl)carbonyl]-3-phenylpiperidin-4-yl}amino)methyl]-2-fluoro-4′-(trifluoromethoxy)biphenyl-4-carbonitrile]",–
–,0.013,"N#Cc1ccc(-c2ccc(OC(F)(F)F)c(CN[C@H]3CCN(C(=O)C4CC(=O)NC(=O)C4)C[C@H]3c3ccccc3)c2)c(F)c1 [Example 102, 3′-[({(3R,4S)-1-[(2,6-dioxopiperidin-4-yl)carbonyl]-3-phenylpiperidin-4-yl}amino)methyl]-2-fluoro-4′-(trifluoromethoxy)biphenyl-4-carbonitrile]",–
142 to 144,0.019,"N#Cc1ccc(-c2ccc(OC(F)(F)F)c(CN[C@H]3CCN(C(=O)C(N)=O)C[C@H]3c3ccccc3)c2)c(F)c1 [Example 104, 2-[(3R,4S)-4-({[4′-cyano-2′-fluoro-4-(trifluoromethoxy)biphenyl-3-yl]methyl}amino)-3-phenylpiperidin-1-yl]-2-oxoacetamide]",–
–,0.058,"CC1(C)OC(=O)N(CC(=O)N2CC[C@H](NCc3cc(-c4ccc(Cl)cc4)ccc3OC(F)(F)F)[C@H](c3ccccc3)C2)C1=O [Example 116, 3-{2-[(3R,4S)-4-({[4′-chloro-4-(trifluoromethoxy)biphenyl-3-yl]methyl}amino)-3-phenylpiperidin-1-yl]-2-oxoethyl}-5,5-dimethyl-1;3-oxazolidine-2,4-dione]",–
–,0.14,"O=C1CC(C(=O)N2CC[C@H](NCc3cc(-c4ccc(Cl)cc4F)ccc3OC(F)(F)F)[C@H](c3ccccc3)C2)CC(=O)N1 [Example 132, 4-{[(3R,4S)-4-({[4′-chloro-2′-fluoro-4-(trifluoromethoxy)biphenyl-3-yl]methyl}amino)-3-phenylpiperidin-1-yl]carbonyl}piperidine-2,6-dione]",–
–,0.042,"CC1(C)OC(=O)N(CC(=O)N2CC[C@H](NCc3cc(-c4ccc(C#N)cc4)ccc3OC(F)(F)F)[C@H](c3ccccc3)C2)C1=O [Example 137, 3′-[({(3R,4S)-1-[(5,5-dimethyl-2,4-dioxo-1,3-oxazolidin-3-yl)acetyl]-3-phenylpiperidin-4-yl}amino)methyl]-4′-(trifluoromethoxy)biphenyl-4-carbonitrile]",–
